Test results reported in patent publication US20250313572A1, “MACROCYCLIC MCL-1 INHIBITORS AND METHODS OF USE” (AbbVie Inc., priority 2017, published 2025).
Read-outs that look alike come from different tables or passages of the source.

Key:
[1] = test system: NCI-H929 human multiple myeloma tumor cell line; experiment: NCI-H929 cell viability assay (CellTiter-Glo, 24 hours); assay type: cell-based; settings: Homo sapiens, NCI-H929, 24 h, read-out: H929 Viability IC50 (μM, 10% FBS), 10% FBS, 24 hours of compound treatment
GST-MCL-1 = GST-MCL-1 (Homo sapiens, UniProt Q07820); experiment: TR-FRET MCL-1 binding assay (competition with probe F-Bak)
GST-MCL-1, sequence (Q07820 whole entry): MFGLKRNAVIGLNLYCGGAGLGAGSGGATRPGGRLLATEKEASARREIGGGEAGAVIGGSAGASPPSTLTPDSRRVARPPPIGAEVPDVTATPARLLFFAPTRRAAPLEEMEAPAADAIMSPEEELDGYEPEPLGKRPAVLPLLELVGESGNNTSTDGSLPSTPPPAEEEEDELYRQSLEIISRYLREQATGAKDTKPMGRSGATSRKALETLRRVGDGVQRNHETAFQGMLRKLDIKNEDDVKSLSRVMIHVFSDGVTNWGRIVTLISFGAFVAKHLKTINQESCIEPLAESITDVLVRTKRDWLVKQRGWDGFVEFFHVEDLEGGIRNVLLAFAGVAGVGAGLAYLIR
In short: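 Test compounds, 11 three-fold dilutions from 25 μM final, incubated 2 hours at room temperature with GST-MCL-1, F-Bak probe and Tb-anti-GST antibody. TR-FRET read at 340/35 nm excitation with 520/525 and 495/510 nm emission. Run without human serum and with 10% HS.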

[2] = test system: AMO-1 human multiple myeloma tumor cell line; experiment: AMO-1 cell viability assay (CellTiter-Glo, 24 hours); assay type: cell-based; settings: Homo sapiens, AMO1, 24 h, read-out: AMO-1 Viability IC50 (μM, 10% FBS), 10% FBS, 24 hours of compound treatment
[3] = MCL-1 Binding Ki (nM, 10% HS), in the presence of 10% HS (human serum)
[4] = without HS, read-out: MCL-1 Binding Ki

SMILES | IC50 [1] [µM] | Ki (GST-MCL-1; [3]) [nM] | Ki (GST-MCL-1; [4]) [nM] | IC50 [2] [nM]
Cc1c(Cl)c2c(Cl)c(C)c1-c1c(-c3ccc(F)cc3)sc3ncnc(c13)O[C@@H](C(=O)O)Cc1cc(ccc1OCc1ccnc(-c3ccc(OCC4COCCOCCOCCOCCOCCO4)cc3)n1)OC[C@@H](CN1CCN(C)CC1)O2 (stereo partly drawn) [Example 123, (7R,16R)-19,23-dichloro-1-(4-fluorophenyl)-10-[(2-{4-[(1,4,7,10,13,16-hexaoxacyclooctadecan-2-yl)methoxy]phenyl}pyrimidin-4-yl)methoxy]-20,22-dimethyl-16-[(4-methylpiperazin-1-yl)methyl]-7,8,15,16-tetrahydro-18,21-etheno-13,9-(metheno)-6,14,17-trioxa-2-thia-3,5-diazacyclononadeca[1,2,3-cd]indene-7-carboxylic Acid] | 0.00467 | 0.051 | 0.003 | 1.28
Cc1c(Cl)c2c(Cl)c(C)c1-c1c(-c3ccc(F)cc3)sc3ncnc(c13)O[C@@H](C(=O)O)Cc1cc(ccc1OCc1ccnc(N3CC(C(CO)CO)C3)n1)OC[C@@H](CN1CCN(C)CC1)O2 [Example 65, (7R,16R)-19,23-dichloro-10-({2-[3-(1,3-dihydroxypropan-2-yl)azetidin-1-yl]pyrimidin-4-yl}methoxy)-1-(4-fluorophenyl)-20,22-dimethyl-16-[(4-methylpiperazin-1-yl)methyl]-7,8,15,16-tetrahydro-18,21-etheno-9,13-(metheno)-6,14,17-trioxa-2-thia-3,5-diazacyclononadeca[1,2,3-cd]indene-7-carboxylic Acid] | 0.0596 | 0.65 | 0.195 | 20.9
Cc1c2ccc(c1Cl)O[C@H](CN1CCN(C)CC1)COc1ccc(OCc3ccnc(-c4ccc(CCC(=O)O)cc4)n3)c(c1)C[C@H](C(=O)O)Oc1ncnc3sc(-c4ccc(F)cc4)c-2c13 (atropisomer, axis not shown) [Example 17, (7R,16R,21S)-10-({2-[4-(2-carboxyethyl)phenyl]pyrimidin-4-yl}methoxy)-19-chloro-1-(4-fluorophenyl)-20-methyl-16-[(4-methylpiperazin-1-yl)methyl]-7,8,15,16-tetrahydro-18,21-etheno-13,9-(metheno)-6,14,17-trioxa-2-thia-3,5-diazacyclononadeca[1,2,3-cd]indene-7-carboxylic Acid] | 0.0298 | 0.246 | 0.015 | 15.5
COCCOCCOCCOCCOCC1(c2nccc(COc3ccc4cc3C[C@H](C(=O)O)Oc3ncnc5sc(-c6ccc(F)cc6)c(c35)-c3c(C)c(Cl)c(c(Cl)c3C)O[C@H](CN3CCN(C)CC3)CO4)n2)CCC1 [Example 58, (7R,16R)-19,23-dichloro-1-(4-fluorophenyl)-20,22-dimethyl-16-[(4-methylpiperazin-1-yl)methyl]-10-({2-[1-(2,5,8,11,14-pentaoxapentadecan-1-yl)cyclobutyl]pyrimidin-4-yl}methoxy)-7,8,15,16-tetrahydro-18,21-etheno-13,9-(metheno)-6,14,17-trioxa-2-thia-3,5-diazacyclononadeca[1,2,3-cd]indene-7-carboxylic Acid] | 0.00056 | 0.161 | 0.05 | 0.378
COCCOCCOCCOCC1(C)CC=C(c2nccc(COc3ccc4cc3C[C@H](C(=O)O)Oc3ncnc5sc(-c6ccc(F)cc6)c(c35)-c3c(C)c(Cl)c(c(Cl)c3C)O[C@H](CN3CCN(C)CC3)CO4)n2)CC1 (single isomer, unassigned) [Example 112, (7R,16R)-19,23-dichloro-1-(4-fluorophenyl)-20,22-dimethyl-16-[(4-methylpiperazin-1-yl)methyl]-10-({2-[(4R*)-4-methyl-4-(2,5,8,11-tetraoxadodecan-1-yl)cyclohex-1-en-1-yl]pyrimidin-4-yl}methoxy)-7,8,15,16-tetrahydro-18,21-etheno-13,9-(metheno)-6,14,17-trioxa-2-thia-3,5-diazacyclononadeca[1,2,3-cd]indene-7-carboxylic Acid] | 0.000283 | 0.217 | 0.012 | 0.132
CO[C@H]1O[C@H](COc2ccc(-c3nccc(COc4ccc5cc4C[C@H](C(=O)O)Oc4ncnc6sc(-c7ccc(F)cc7)c(c46)-c4ccc(c(Cl)c4C)O[C@H](CN4CCN(C)CC4)CO5)n3)cc2)[C@@H](OC)[C@H](OC)[C@@H]1OC [Example 14, methyl 6-O-{4-[4-({[(7R,16R,21S)-7-carboxy-19-chloro-1-(4-fluorophenyl)-20-methyl-16-[(4-methylpiperazin-1-yl)methyl]-7,8,15,16-tetrahydro-18,21-etheno-13,9-(metheno)-6,14,17-trioxa-2-thia-3,5-diazacyclononadeca[1,2,3-cd]inden-10-yl]oxy}methyl)pyrimidin-2-yl]phenyl}-2,3,4-tri-O-methyl-a-D-mannopyranoside] | 0.00258 | 0.547 | 0.124 | 1.54
COCCOCCOC[C@@H]1CC=C(c2nccc(COc3ccc4cc3C[C@H](C(=O)O)Oc3ncnc5sc(-c6ccc(F)cc6)c(c35)-c3c(C)c(Cl)c(c(Cl)c3C)O[C@H](CN3CCN(C)CC3)CO4)n2)CC1 [Example 128, (7R,16R)-19,23-dichloro-1-(4-fluorophenyl)-10-({2-[(4S)-4-{[2-(2-methoxyethoxy)ethoxy]methyl}cyclohex-1-en-1-yl]pyrimidin-4-yl}methoxy)-20,22-dimethyl-16-[(4-methylpiperazin-1-yl)methyl]-7,8,15,16-tetrahydro-18,21-etheno-13,9-(metheno)-6,14,17-trioxa-2-thia-3,5-diazacyclononadeca[1,2,3-cd]indene-7-carboxylic Acid] | 0.000313 | 0.275 | 0.027 | 0.0939
CO[C@H]1O[C@H](COc2cccc(-c3nccc(COc4ccc5cc4C[C@@H](C(=O)O)Oc4ncnc6sc(-c7ccc(F)cc7)c(c46)-c4ccc(c(Cl)c4C)O[C@H](CN4CCN(C)CC4)CO5)n3)c2)[C@@H](OC)[C@H](OC)[C@@H]1OC [Example 8, methyl 6-O-{3-[4-({[(7S,16R,21S)-7-carboxy-19-chloro-1-(4-fluorophenyl)-20-methyl-16-[(4-methylpiperazin-1-yl)methyl]-7,8,15,16-tetrahydro-18,21-etheno-13,9-(metheno)-6,14,17-trioxa-2-thia-3,5-diazacyclononadeca[1,2,3-cd]inden-10-yl]oxy}methyl)pyrimidin-2-yl]phenyl}-2,3,4-tri-O-methyl-a-D-mannopyranoside] | 0.989 | 111 | 8.83 | 518
COCCOCCOCCOc1ccc(COc2ccc3cc2C[C@H](C(=O)O)Oc2ncnc4sc(-c5ccc(F)cc5)c(c24)-c2c(C)c(Cl)c(c(Cl)c2C)O[C@H](CN2CCN(C)CC2)CO3)nc1 [Example 162, (7R,16R)-19,23-dichloro-1-(4-fluorophenyl)-10-[(5-{2-[2-(2-methoxyethoxy)ethoxy]ethoxy}pyridin-2-yl)methoxy]-20,22-dimethyl-16-[(4-methylpiperazin-1-yl)methyl]-7,8,15,16-tetrahydro-18,21-etheno-13,9-(metheno)-6,14,17-trioxa-2-thia-3,5-diazacyclononadeca[1,2,3-cd]indene-7-carboxylic Acid] | 0.0143 | 0.934 | 0.159 | 12
CO[C@H]1O[C@H](COc2ccc(-c3nccc(COc4ccc5cc4C[C@H](C(=O)O)Oc4ncnc6sc(-c7ccc(F)cc7)c(c46)-c4ccc(c(Cl)c4C)CN(CCN4CCN(C)CC4)C5)n3)cc2)[C@@H](OC)[C@H](OC)[C@@H]1OC [Example 11, methyl 6-O-{4-[4-({[(7R,20S)-7-carboxy-18-chloro-1-(4-fluorophenyl)-19-methyl-15-[2-(4-methylpiperazin-1-yl)ethyl]-7,8,15,16-tetrahydro-14H-17,20-etheno-13,9-(metheno)-6-oxa-2-thia-3,5,15-triazacyclooctadeca[1,2,3-cd]inden-10-yl]oxy}methyl)pyrimidin-2-yl]phenyl}-2,3,4-tri-O-methyl-a-D-mannopyranoside] | 0.514 | 2.34 | 0.374 | 363
Cc1c(Cl)c2c(Cl)c(C)c1-c1c(-c3ccc(F)cc3)sc3ncnc(c13)O[C@@H](C(=O)O)Cc1cc(ccc1OCc1ccnc(-c3ccccc3OC[C@H](O)CO)n1)OC[C@@H](CN1CCN(C)CC1)O2 [Example 23, (7R,16R)-19,23-dichloro-10-[(2-{2-[(2R)-2,3-dihydroxypropoxy]phenyl}pyrimidin-4-yl)methoxy]-1-(4-fluorophenyl)-20,22-dimethyl-16-[(4-methylpiperazin-1-yl)methyl]-7,8,15,16-tetrahydro-18,21-etheno-13,9-(metheno)-6,14,17-trioxa-2-thia-3,5-diazacyclononadeca[1,2,3-cd]indene-7-carboxylic Acid] | 0.00389 | 0.238 | 0.018 | 2.22
Cc1c(Cl)c2c(Cl)c(C)c1-c1c(-c3ccc(F)cc3)sc3ncnc(c13)O[C@@H](C(=O)O)Cc1cc(ccc1OCc1ccnc(-c3ccc(OC[C@H]4COCCN4C)cc3)n1)OC[C@@H](CN1CCN(C)CC1)O2 [Example 163, (7R,16R)-19,23-dichloro-1-(4-fluorophenyl)-20,22-dimethyl-10-{[2-(4-{[(3R)-4-methylmorpholin-3-yl]methoxy}phenyl)pyrimidin-4-yl]methoxy}-16-[(4-methylpiperazin-1-yl)methyl]-7,8,15,16-tetrahydro-18,21-etheno-9,13-(metheno)-6,14,17-trioxa-2-thia-3,5-diazacyclononadeca[1,2,3-cd]indene-7-carboxylic Acid] | 0.00134 | 0.285 | 0.013 | 0.399
